Our source for the IC50 values is patent US8962648B2, “Tricyclic compounds and PBK inhibitors containing the same” (OncoTherapy Science, Inc., priority 2010, dated 2015).

Molecules are shown by their SMILES. Structures can show the parent of a compound that is named as a salt. Where two headings read alike, the source gives them in different places.

By IC50 is commonly meant the concentration at which inhibition is half-maximal.

One test deals with PBK (Homo sapiens (Human), UniProt Q96KB5). As to the kind of experiment: Kinase assay (IMAP fluorescence polarization, FITC-labeled histone H3 peptide). Format: biochemical. The procedure: PBK activity was determined in the presence or absence of compounds using fluorescein isothiocyanate-labeled (FITC-labeled) histone H3 peptide as a substrate. […] The serially diluted compounds, 0.8 ng/micro-L PBK (Carna Biosciences) and 100 nM FITC-labeled histone H3 peptide were reacted in a reaction buffer (20 mM HEPES, 0.01% Tween-20, 0.3 mM MgCl2, 2 mM dithiothreitol, 50 micro-M ATP, pH 7.4) at room temperature for 1 hour. The reaction was stopped by the addition of three fold assay volume of progressive binding solution. […] IC50 values were calculated by nonlinear four parameter fit using SigmaPlot, version 10.0 (Systat Software, Inc.).
Sequence of PBK (Q96KB5 whole entry): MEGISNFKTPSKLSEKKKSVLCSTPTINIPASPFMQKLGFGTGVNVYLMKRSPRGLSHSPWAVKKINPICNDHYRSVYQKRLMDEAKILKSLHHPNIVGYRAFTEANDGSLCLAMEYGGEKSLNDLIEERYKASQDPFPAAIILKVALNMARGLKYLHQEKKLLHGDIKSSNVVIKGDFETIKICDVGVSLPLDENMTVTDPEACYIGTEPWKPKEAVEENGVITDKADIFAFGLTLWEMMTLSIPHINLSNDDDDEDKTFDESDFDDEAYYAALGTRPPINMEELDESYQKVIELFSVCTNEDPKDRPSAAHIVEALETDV
(Polarisation of emitted light reports the rotation of a fluorescent probe.)

The test system of another test is BT-549 cells. The experiment in a line: Cell-based assay, cellular growth (Cell Counting Kit-8, 72 hours). The following applies: Homo sapiens, BT549 cells. The method, then:
(§1) 100 micro-L of cell suspension was seeded onto 96-well microtiter plate (ViewPlate-96FTC, PerkinElmer). […] Cellular growth was determined using Cell Counting Kit-8 (DOJINDO) at 72 hours after the exposure of the candidate inhibitors. […] Accurate IC50 values were calculated as described previously.
(In general: Tetrazolium dyes change colour on reduction, which living cells bring about.)

Another test relates to A549 cells. The description is as above. The settings on record: Homo sapiens. The method, then: as §1
For a further test, the system named is T47D cells. The description is as above. The following applies: Homo sapiens. The procedure: as §1
For a further test, the system named is HT-1197 cells. The experiment in a line: Cell-based assay, cellular growth (Cell Counting Kit-8, 72 hours), PBK-negative control cells. The following applies: Homo sapiens. The procedure: as §1
Where [1] appears, read: PBK 0.8 ng/micro-L, 50 micro-M ATP, 100 nM FITC-labeled histone H3 peptide, room temperature 1 hour.

Consider `COc1cc(C)c2[nH]c(=O)c3sccc3c2c1-c1ccc(C(C)CN)c(F)c1` (centres unmarked) [Compound 1273, 9-(4-(1-aminopropan-2-yl)-3-fluorophenyl)-8-methoxy-6-methylthieno[2,3-c]quinolin-4(5H)-one hydrochloride], for which the IC50 against PBK turned out to be 40 nM; in the test on BT-549 cells, 73 nM; with A549 cells (A549, 72 h), 71 nM; with T47D cells (T47D, 72 h), 170 nM; in the test with HT-1197 cells (HT1197, 72 h) it was 200 nM.
The matching figures for `CC(N)c1ccc(-c2c(O)cc(Cl)c3[nH]c(=O)c4sccc4c23)cc1` (centres unmarked) [Compound 1041, 9-(4-(1-aminoethyl)phenyl)-6-chloro-8-hydroxythieno[2,3-c]quinolin-4(5H)-one hydrochloride]: 12 nM, 190 nM, 160 nM, 340 nM and 650 nM.
As for `Cc1cc(O)c(-c2ccc(C(CN)C(C)C)cc2)c2c1[nH]c(=O)c1sccc12` (centres unmarked) [Compound 1274, 9-(4-(1-amino-3-methylbutan-2-yl)phenyl)-8-hydroxy-6-methylthieno[2,3-c]quinolin-4(5H)-one], the IC50 against PBK (setting [1]) was 18 nM; in the test with BT-549 cells, 66 nM; in the test with A549 cells (A549, 72 h), 45 nM; with T47D cells (T47D, 72 h) it was 98 nM; in the test on HT-1197 cells (HT1197, 72 h), 180 nM.
The matching figures for `CN[C@H](C)c1ccc(-c2c(O)ccc3[nH]c(=O)c4sccc4c23)cc1` [Compound 1052, (R)-8-hydroxy-9-(4-(1-(methylamino)ethyl)phenyl)thieno[2,3-c]quinolin-4(5H)-one hydrochloride]: 1.3 nM, 170 nM, 170 nM, 320 nM and 450 nM.
The matching figures for `NCCc1ccc(-c2c(O)cc(Br)c3[nH]c(=O)c4sccc4c23)cc1F` [Compound 1213, 9-(4-(2-aminoethyl)-3-fluorophenyl)-6-bromo-8-hydroxythieno[2,3-c]quinolin-4(5H)-one hydrochloride]: 19 nM, 230 nM, 360 nM, 380 nM and 1700 nM.
As to `COc1cc(C)c2[nH]c(=O)c3sccc3c2c1-c1ccc([C@H](C)CN)c(F)c1` [Compound 1310, (S)-9-(4-(1-aminopropan-2-yl)-3-fluorophenyl)-8-methoxy-6-methylthieno[2,3-c]quinolin-4(5H)-one hydrochloride], the 50% inhibitory concentration (IC50) worked out at 54 nM against PBK; 400 nM in the test with BT-549 cells; 370 nM in the test on A549 cells (A549, 72 h); 800 nM in the test with T47D cells (T47D, 72 h); 890 nM with HT-1197 cells (HT1197, 72 h).
Turning to `COc1cc(Cl)c2[nH]c(=O)c3sccc3c2c1-c1ccc([C@@H](C)CN)cc1` [Compound 1201, (R)-9-(4-(1-aminopropan-2-yl)phenyl)-6-chloro-8-methoxythieno[2,3-c]quinolin-4(5H)-one hydrochloride], the IC50 against PBK (setting [1]) stood at 20 nM; in the test on BT-549 cells, 53 nM; with A549 cells (A549, 72 h), 46 nM; with T47D cells (T47D, 72 h) it was 120 nM; in the test with HT-1197 cells (HT1197, 72 h), 140 nM.
Regarding `C[C@@H](CN)c1ccc(-c2c(O)cc(Br)c3[nH]c(=O)c4sccc4c23)cc1` [Compound 1176, (R)-9-(4-(1-aminopropan-2-yl)phenyl)-6-bromo-8-hydroxythieno[2,3-c]quinolin-4(5H)-one hydrochloride], the IC50 against PBK (setting [1]) was 17 nM; with BT-549 cells, 24 nM; in the test with A549 cells (A549, 72 h), 27 nM; in the test with T47D cells (T47D, 72 h), 38 nM; with HT-1197 cells (HT1197, 72 h), 100 nM.
The matching figures for `Cc1cc(O)c(-c2ccc(CCC#N)cc2)c2c1[nH]c(=O)c1sccc12` [Compound 1226, 3-(4-(8-hydroxy-6-methyl-4-oxo-4,5-dihydrothieno[2,3-c]quinolin-9-yl)phenyl)propanenitrile]: 92 nM, 590 nM, 490 nM, 1200 nM and 1300 nM.
Turning to `CNCC(C)c1ccc(-c2c(OC)cc(C)c3[nH]c(=O)c4sccc4c23)cc1F` (centres unmarked) [Compound 1286, 9-(3-fluoro-4-(1-(methylamino)propan-2-yl)phenyl)-8-methoxy-6-methylthieno[2,3-c]quinolin-4(5H)-one hydrochloride], the IC50 against PBK was 43 nM; with BT-549 cells it was 93 nM; in the test with A549 cells (A549, 72 h) it was 95 nM; with T47D cells (T47D, 72 h), 220 nM; with HT-1197 cells (HT1197, 72 h), 220 nM.
For `COc1cc(C)c2[nH]c(=O)c3sccc3c2c1-c1ccc([C@@H](C)CN)cc1` [Compound 1305, (R)-9-(4-(1-aminopropan-2-yl)phenyl)-8-methoxy-6-methylthieno [2,3-c]quinolin-4(5H)-one hydrochloride], the IC50 amounted to 15 nM against PBK (setting [1]); 21 nM with BT-549 cells; 20 nM in the test on A549 cells (A549, 72 h); 40 nM in the test on T47D cells (T47D, 72 h); 64 nM with HT-1197 cells (HT1197, 72 h).
The matching figures for `Cc1cc(O)c(-c2ccc(C(C)(C)CN)cc2)c2c1[nH]c(=O)c1sccc12` [Compound 1228, 9-(4-(1-amino-2-methylpropan-2-yl)phenyl)-8-hydroxy-6-methylthieno[2,3-c]quinolin-4(5H)-one hydrochloride]: 39 nM, 150 nM, 160 nM, 330 nM and 810 nM.
For the molecule `CC[C@@H](CN)c1ccc(-c2c(O)cc(C)c3[nH]c(=O)c4sccc4c23)cc1` [Compound 1352, (R)-9-(4-(1-aminobutan-2-yl)phenyl)-8-hydroxy-6-methylthieno[2,3-c]quinolin-4(5H)-one hydrochloride], the IC50 came out at 40 nM at PBK (setting [1]); 71 nM with BT-549 cells; 55 nM with A549 cells (A549, 72 h); 99 nM in the test with T47D cells (T47D, 72 h); 340 nM in the test on HT-1197 cells (HT1197, 72 h).
Regarding `CC(CN(C)C)c1ccc(-c2c(O)ccc3[nH]c(=O)c4sccc4c23)cc1` (centres unmarked) [Compound 1112, 9-(4-(1-(dimethylamino)propan-2-yl)phenyl)-8-hydroxythieno[2,3-c]quinolin-4(5H)-one hydrochloride], the IC50 was 3.3 nM against PBK; 210 nM in the test on BT-549 cells; 250 nM in the test with A549 cells; 470 nM in the test on T47D cells; 640 nM in the test on HT-1197 cells (HT1197 cells (PBK-negative control)).
On to `CNC[C@H](C)c1ccc(-c2c(OC)cc(C)c3[nH]c(=O)c4sccc4c23)cc1` [Compound 1298, (R)-8-methoxy-6-methyl-9-(4-(1-(methylamino)propan-2-yl)phenyl)thieno[2,3-c]quinolin-4(5H)-one hydrochloride], for which the IC50 against PBK (setting [1]) turned out to be 32 nM; in the test on BT-549 cells, 64 nM; with A549 cells (A549, 72 h) it was 68 nM; with T47D cells (T47D, 72 h) it was 140 nM; in the test with HT-1197 cells (HT1197, 72 h), 160 nM.
Regarding `NCCc1ccc(-c2c(O)cc(Cl)c3[nH]c(=O)c4sccc4c23)cc1` [Compound 1133, 9-(4-(2-aminoethyl)phenyl)-6-chloro-8-hydroxythieno[2,3-c]quinolin-4(5H)-one hydrochloride], the concentration for half-maximal inhibition (IC50) against PBK was 20 nM; in the test on BT-549 cells, 150 nM; in the test with A549 cells (A549, 72 h) it was 180 nM; in the test with T47D cells (T47D, 72 h), 230 nM; with HT-1197 cells (HT1197, 72 h), 870 nM.
